# According to PubChem BioAssay (NCI):
# Values joined by “and” are separate entries in the source; they are usually repeats but may differ in a detail not shown here. Equal values may be shown once.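 All cell lines were grown in 96-well plates and treated with compound for 48 hours. The concentration for 50% growth inhibition is given as GI50. TGI denotes the concentration required for complete inhibition of growth.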
# Columns and labels:
# Experiment in all cases: inhibition of tumour cell growth, NCI panel, 48 h
# [1] = system: A498 renal
# [2] = system: COLO 205 colon
# [3] = system: HOP-62 NSCLC
# [4] = system: M14 melanoma
# [5] = system: MALME-3M melanoma
# [6] = system: OVCAR-8 ovarian
# [7] = system: UACC-257 melanoma
# [8] = system: DU-145 prostate
# [9] = system: MDA-MB-231 breast
# [10] = system: MDA-MB-435
SMILES,TGI [1] [µM],TGI [2],TGI [3] [µM],TGI [4] [µM],TGI [5],TGI [6],TGI [7],GI50 [2] [nM],GI50 [8] [nM],TGI [8] [µM],GI50 [3],GI50 [4] [nM],GI50 [9] [nM],TGI [9] [µM],GI50 [10] [nM],TGI [10] [µM],GI50 [6] [µM],GI50 [7],GI50 [1] [µM],GI50 [5] [µM]
CSC(=NC(=O)c1ccccc1Cl)SCCSC(=NC(=O)c1ccccc1Cl)SC,> 100,> 100 µM,> 100,> 100,> 100 µM,> 100 µM,> 100 µM,–,–,–,–,–,–,–,–,–,–,–,–,–
COC(=O)/C=C1/SC(=Nc2cccc(Cl)c2)N(CCc2c[nH]c3ccc(O)cc23)C1=O,–,4.04 µM,3.93,3.36,–,6.72 µM,3.99 µM,2050,1860,4.81,1900 nM,1620,1740,3.59,1680,3.96,2.32,1960 nM,–,–
CC(Oc1ccc2c(-c3ccc(Cl)cc3)cc(=O)oc2c1)C(=O)O (stereo not drawn),> 100,> 100 µM,> 100,> 100,> 100 µM,> 100 µM,> 100 µM,–,–,–,–,–,–,–,–,–,–,–,–,–
COc1ccc(C(=O)C2CCC(C(=O)O)C2)cc1 (stereo not drawn),> 100,> 100 µM,> 100,> 100,> 100 µM,> 100 µM,> 100 µM,–,–,–,–,–,–,–,–,–,–,–,–,–
COc1ccc2c(c1)c(-c1nc(-c3cn(C)c4ccncc34)cs1)cn2C,20.4,–,3.62,3.29,3.58 µM,–,3.6 µM,–,1780,3.34,1900 nM,1700,1830,3.53,1590,2.97,–,1900 nM,6.59,2.02
COc1ccc(C(=O)/C=C/c2ccc(OCCCCCCCCCCOc3ccc(/C=C/C(=O)c4ccc(OC)cc4)cc3)cc2)cc1,–,> 100 µM,> 100,> 100,–,> 100 µM,> 100 µM,–,–,> 100,–,–,–,> 100,–,> 100,–,–,–,–
O=C1c2ccccc2C(=O)N1CCc1ncc(-c2ccccc2)[nH]1,> 100,> 100 µM,> 100,> 100,> 100 µM,> 100 µM,> 100 µM,–,–,> 100,–,–,–,> 100,–,–,–,–,–,–
CCOC(=O)C(=Cc1ccc(C#N)cc1)C(=O)OCC,20.1,3.83 µM,9.81,4.26,–,11.4 µM,5.63 µM,1870,3040,10.3,2730 nM,1890,2690,6.95,1980,4.79,3.54,2410 nM,7.84,–
[N-]=[N+]=NCN1C(=O)C2C3C=CC(C2C1=O)C1C2C(=O)N(CN=[N+]=[N-])C(=O)C2C31 (stereo not drawn),–,> 100 µM,> 100,> 100,–,> 100 µM,> 100 µM,–,–,> 100,–,–,–,–,–,> 100,–,–,–,–
CCC[CH2][Sn](=[O])[CH2]CCC,–,> 50 µM,> 50,> 50,> 50 µM,> 50 µM,> 50 µM,> 50000,–,–,> 50000 nM,> 50000,–,–,–,–,> 50,> 50000 nM,–,> 50
COc1ccc(CC(=O)NCCc2ccc(OC)c(OC)c2OC)cc1,> 100,–,> 100,> 100,> 100 µM,> 100 µM,> 100 µM,–,–,–,–,–,–,–,–,–,–,–,–,–
COc1ccc2c(c1)CCC1C2CC[C@@]2(C)C1CC[C@@H]2NC(=O)Cc1ccc(O)c(O)c1 (stereo partly drawn),33.7,12.5 µM,–,–,41 µM,30.8 µM,30.8 µM,3340,8470,20.8,–,–,4050,16.9,4630,17.2,8.71,17000 nM,18.8,9.13
CSc1ccc(C2=NN(C(C)=O)C(c3ccc(-c4cc(Cl)c(Cl)cc4Cl)o3)C2)cc1 (stereo not drawn),–,32.1 µM,29.4,–,39.9 µM,36.9 µM,42.7 µM,16800,15500,29,15800 nM,–,11300,23.3,15500,36.4,16.9,22800 nM,–,19.5
CC(C)(C)C1=CC(=N/N=c2\scc(-c3ccccc3)n2-c2ccccc2)C=C(C(C)(C)C)C1=O,> 100,> 100 µM,> 100,> 100,> 100 µM,> 100 µM,> 100 µM,–,–,–,–,–,–,–,–,–,–,–,–,–
c1ccc(SC(Sc2ccccc2)=C2CCC2)cc1,> 100,> 100 µM,> 100,> 100,–,> 100 µM,> 100 µM,–,–,–,–,–,–,–,–,–,–,–,–,–
O=C1c2ccccc2-c2c3c(cc4ccnc1c24)OCO3,12.8,82.5 µM and 16 µM,21.1,> 100,11 µM and 15.6 µM,27.7 µM and 25.5 µM,39.2 µM and 11.7 µM,–,–,–,–,–,–,–,–,–,–,5230 nM and 2590 nM,–,–
NC(=S)N1N=C2CCCCCC[C@@H]2[C@H]1c1ccccc1,> 100,> 100 µM,> 100,> 100,> 100 µM,> 100 µM,> 100 µM,–,–,–,–,–,–,–,–,–,–,–,–,–
C=C(C)[C@@H]1CC[C@]2(CO)CC[C@]3(C)[C@H](CC[C@@H]4[C@@]5(C)CCCNC(C)(C)[C@@H]5CC[C@]43C)[C@@H]12,5.63,3.24 µM,3.42,3.13,3.05 µM,3.51 µM,3.73 µM,1540,1630,3.02,1810 nM,1580,1770,3.21,–,–,1.83,1950 nM,2.17,1.5
COc1ccc(N2C(=O)C3CC(c4ccc(Br)cc4)c4c([nH]c5ccccc45)C3C2=O)cc1 (stereo not drawn),22.3,34.8 µM,11.5,> 100,36.7 µM,5.96 µM,36.8 µM,–,–,–,–,–,–,–,–,–,–,–,–,–
Nc1ncc(-c2ccc3ncnc(Nc4cccc(Cl)c4)c3c2)cn1,–,–,> 100,–,–,> 100 µM,> 100 µM,–,809,> 100,388 nM and 2980 nM,–,2220,> 100,–,–,2.87,> 100000 nM,–,–
